The results in this text go back to patent publication US20170198006A1, “PRMT5 INHIBITORS AND USES THEREOF” (Epizyme, Inc., priority 2014, published 2017).

Where only a bound is given, the exact number is not on record here.

The target of the first assay is T1, PRMT5/MEP50 (Homo sapiens, UniProt O14744).
T1 construct: Flag-PRMT5; made in house; host or cells: Spodoptera frugiperda (SF9), baculovirus
T1 sequence (O14744 with tags, fused parts or gaps): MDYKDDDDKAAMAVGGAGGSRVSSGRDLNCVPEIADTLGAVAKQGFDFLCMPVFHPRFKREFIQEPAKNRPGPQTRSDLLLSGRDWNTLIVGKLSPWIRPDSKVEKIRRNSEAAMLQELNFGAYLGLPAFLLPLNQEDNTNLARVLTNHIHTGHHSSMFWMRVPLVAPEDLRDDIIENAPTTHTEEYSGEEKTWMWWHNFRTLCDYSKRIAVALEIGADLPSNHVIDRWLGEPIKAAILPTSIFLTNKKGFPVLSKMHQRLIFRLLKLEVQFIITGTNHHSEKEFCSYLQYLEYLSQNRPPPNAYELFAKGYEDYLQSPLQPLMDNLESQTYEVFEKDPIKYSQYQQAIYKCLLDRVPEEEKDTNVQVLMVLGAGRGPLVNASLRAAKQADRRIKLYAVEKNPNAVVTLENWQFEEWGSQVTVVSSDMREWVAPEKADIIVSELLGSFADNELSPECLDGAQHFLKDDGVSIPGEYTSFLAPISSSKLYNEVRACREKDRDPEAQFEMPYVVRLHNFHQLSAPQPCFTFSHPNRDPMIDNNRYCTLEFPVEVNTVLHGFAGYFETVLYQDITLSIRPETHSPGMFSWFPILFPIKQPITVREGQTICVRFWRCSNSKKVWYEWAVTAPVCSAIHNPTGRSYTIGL
T1 sequence (Q9BQA1 with tags, fused parts or gaps partner limits assumed): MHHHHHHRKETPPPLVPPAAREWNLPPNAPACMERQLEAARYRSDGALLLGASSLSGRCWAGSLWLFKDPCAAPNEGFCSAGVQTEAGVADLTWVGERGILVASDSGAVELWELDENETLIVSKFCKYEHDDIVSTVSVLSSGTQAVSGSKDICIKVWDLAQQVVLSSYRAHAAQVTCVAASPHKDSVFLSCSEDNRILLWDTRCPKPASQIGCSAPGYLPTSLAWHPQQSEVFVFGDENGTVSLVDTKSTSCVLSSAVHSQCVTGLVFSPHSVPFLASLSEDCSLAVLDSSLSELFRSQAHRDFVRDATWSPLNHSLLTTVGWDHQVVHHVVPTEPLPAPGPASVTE
As to the kind of experiment: PRMT5 Biochemical Assay (PRMT5/MEP50 enzyme assay on histone H4 peptide substrate, 3H-SAM Flashplate).
Conditions: not given
An excerpt: S-adenosylmethionine (SAM), S-adenosylhomocysteine (SAH), bicine, KCl, Tween20, dimethylsulfoxide (DMSO), bovine skin gelatin (BSG), and Tris(2-carboxyethyl)phosphine hydrochloride solution (TCEP) were purchased from Sigma-Aldrich at the highest level of purity possible. ^3H-SAM was purchase from American Radiolabeled Chemicals with a specific activity of 80 Ci/mmol. 384-well streptavidin Flashplates were purchased from PerkinElmer.
Peptide representative of human histone H4 residues 1-15 was synthesized with a C-terminal linker-affinity tag motif and a C-terminal amide cap by 21st Century Biochemicals.
The amplified genes were sublconed into pENTR/D/TEV (Life Technologies) and subsequently transferred by Gateway™ attL×attR recombination to pDEST8 baculvirus expression vector (Life Technologies).
Protein over-expression was accomplished by infecting exponentially growing Spodoptera frugiperda (SF9) cell culture at 1.2×10^6 cell/ml with a 5000 fold dilution of BIIC stock. Infections were carried out at 27° C. for 72 hours, harvested by centrifugation, and stored at −80° C. for purification.
Flag-PRMT5/6His-MeP50 was eluted with 300 mM Imidazole in the same buffer.
General Procedure for PRMT5/MEP50 Enzyme Assays on Peptide Substrates.
The assays were all performed in a buffer consisting of 20 mM Bicine (pH=7.6), 1 mM TCEP, 0.005% BSG, and 0.002% Tween20, prepared on the day of use. […] DMSO (1 ul) was added to Columns 11, 12, 23, 24, rows A-H for the maximum signal control and 1 ul of SAH, a known product and inhibitor of PRMT5/MEP50, was added to columns 11, 12, 23, 24, rows I-P for the minimum signal control. A cocktail (40 ul) containing the PRMT5/MEP50 enzyme and the peptide was added by Multidrop Combi (Thermo-Fisher). The compounds were allowed to incubate with PRMT5/MEP50 for 30 min at 25 degrees Celsius, then a cocktail (10 ul) containing ^3H-SAM was added to initiate the reaction (final volume=51 ul). […] The assays were stopped by the addition of non-radioactive SAM (10 ul) to a final concentration of 600 uM, which dilutes the ^3H-SAM to a level where its incorporation into the peptide substrate is no longer detectable. 50 ul of the reaction in the 384-well polypropylene plate was then transferred to a 384-well Flashplate and the biotinylated peptides were allowed to bind to the streptavidin surface for at least 1 hour before being washed three times with 0.1% Tween20 in a Biotek ELx405 plate washer. The plates were then read in a PerkinElmer TopCount plate reader to measure the quantity of ^3H-labeled peptide bound to the Flashplate surface, measured as disintegrations per minute (dpm) or alternatively, referred to as counts per minute (cpm).
Where dpm=disintegrations per minute, cmpd=signal in assay well, and min and max are the respective minimum and maximum signal controls.
Where top and bottom are the normally allowed to float, but may be fixed at 100 or 0 respectively in a 3-parameter fit. The Hill Coefficient normally allowed to float but may also be fixed at 1 in a 3-parameter fit. Y is the % inhibition and X is the compound concentration.
As a reminder, the IC50 is the concentration that gives 50% inhibition. On to `O=C(CC1NC(N2CCN(Cc3ccccc3)CC2)=NC1=O)Nc1ccccc1` (stereo not shown) [Compound 6-14], for which the IC50 was 10 to 50 µM.

Staying with this assay, now noted: PRMT5 biochemical assay; read-out: Biochemical IC50.
As for `CN(CCNCc1ccc(OC(F)F)cc1)C[C@H]1O[C@@H](n2cnc3c(N)ncnc32)[C@H](O)[C@@H]1O` [Compound 1-1], the IC50 lay within 0.101 to 1 µM.
Still for that read-out and setting: to `COc1cccc([C@H](C)NCCN(C)C[C@H]2O[C@@H](n3cnc4c(N)ncnc43)[C@H](O)[C@@H]2O)c1` [Compound 2-1] belongs 0.101 to 1 µM; to `NCc1nc(CCNC(=O)c2ccccc2)cn1Cc1ccccc1` [Compound 2-2, N-(2-(2-(aminomethyl)-1-benzyl-1H-imidazol-4-yl)ethyl)benzamide], 0.101 to 1 µM.
Turning to `O=C(CC1NC(N2CCN(c3ccccc3)CC2)=NC1=O)c1ccccc1Cl` (stereo not shown) [Compound 2-6], the IC50 lay in the range of 0.101 to 1 µM.
As for `CN1CCN(C2=NC(=O)C(CC(=O)Nc3ccc(Cl)cc3)N2)CC1` (stereo not shown) [Compound 2-14], the IC50 lay in the range of 1 to 10 µM.
Consider `Cc1ccc(C(C)NCCN(C)C[C@H]2O[C@@H](n3cnc4c(N)ncnc43)[C@H](O)[C@@H]2O)cc1` (stereo partly shown) [Compound 3-1], for which the IC50 was in the range of 0.101 to 1 µM.
Same read-out and setting: to `COc1ccccc1C(=O)CC1NC(N2CCN(c3ccccc3)CC2)=NC1=O` (stereo not shown) [Compound 3-6] belongs 0.101 to 1 µM.
For `Cc1cccc(CN(C)CCN(C)C[C@H]2O[C@@H](n3cnc4c(N)ncnc43)[C@H](O)[C@@H]2O)c1` [Compound 4-1], the half-inhibitory concentration (IC50) was in the range of 0.101 to 1 µM.
For `O=C(CC1NC(N2CCN(c3ccccc3)CC2)=NC1=O)Nc1ccc(Br)cc1` (stereo not shown) [Compound 4-6], the IC50 was in the range of 0.101 to 1 µM.
The same measure, in the same setting: with `Cc1ccc(NC(=O)CC2NC(N3CCN(C)CC3)=NC2=O)cc1` (stereo not shown) [Compound 4-14] the figure was 10 to 50 µM; with `CC(NCCN(C)C[C@H]1O[C@@H](n2cnc3c(N)ncnc32)[C@H](O)[C@@H]1O)c1ccccc1` (stereo partly shown) [Compound 5-1], 0.101 to 1 µM; with `COc1ccccc1C(=O)CC1NC(N2CCc3ccccc3C2)=NC1=O` (stereo not shown) [Compound 5-6], under 0.1 µM.
Consider `Cc1cnc(CN)n1Cc1ccccc1` [Compound 5-13], for which the half-maximal inhibitory concentration (IC50) fell in the range of 1 to 10 µM.
For the compound `CCN1CCN(C2=NC(=O)C(CC(=O)Nc3ccc(C)cc3)N2)CC1` (stereo not shown) [Compound 5-14], the IC50 is 1 to 10 µM.
`CN(CCN(C)C[C@H]1O[C@@H](n2cnc3c(N)ncnc32)[C@H](O)[C@@H]1O)Cc1ccccc1Cl` [Compound 6-1]: the IC50 was 0.101 to 1 µM.
Same read-out and setting: to `COc1ccccc1C(=O)CC1NC(N2CC=C(c3ccccc3)CC2)=NC1=O` (stereo not shown) [Compound 6-6] belongs 0.101 to 1 µM; to `CN(CCNCc1ccc(Cl)cc1Cl)C[C@H]1O[C@@H](n2cnc3c(N)ncnc32)[C@H](O)[C@@H]1O` [Compound 7-1], 0.101 to 1 µM.
On to `NCc1ncc(CCNC(=O)c2ccccc2)n1Cc1ccccc1` [Compound 7-13], for which the IC50 is 10 to 50 µM.
Regarding `COc1ccc(NC(=O)CC2NC(N3CCN(c4ccccn4)CC3)=NC2=O)cc1` (stereo not shown) [Compound 7-14], the IC50 is 1 to 10 µM.
As to `CN(CCNCc1ccc(Cl)cc1)C[C@H]1O[C@@H](n2cnc3c(N)ncnc32)[C@H](O)[C@@H]1O` [Compound 8-1], the IC50 was in the range of 0.101 to 1 µM.
Regarding `Cc1cccc(NC(=O)CC2NC(N3CCN(c4ccccc4)CC3)=NC2=O)c1` (stereo not shown) [Compound 8-14], the IC50 was 1 to 10 µM.
As to `CN(CCN(C)C[C@H]1O[C@@H](n2cnc3c(N)ncnc32)[C@H](O)[C@@H]1O)Cc1ccccc1` [Compound 9-1], the IC50 is 0.101 to 1 µM.
As to `Cc1ccc(NC(=O)CC2NC(N3CCN(Cc4ccccc4)CC3)=NC2=O)cc1` (stereo not shown) [Compound 9-14], the IC50 is 1 to 10 µM.
`CN(CCN(C)C[C@H]1O[C@@H](n2cnc3c(N)ncnc32)[C@H](O)[C@@H]1O)Cc1ccc(Cl)cc1` [Compound 10-1]: the IC50 lay in the range of 0.101 to 1 µM.
As to `CC(=O)Nc1ccc(NC(=O)CC2NC(N3CCN(c4ccccc4)CC3)=NC2=O)cc1` (stereo not shown) [Compound 10-14], the IC50 was 10 to 50 µM.
As for `COc1cc(CNCCN(C)C[C@H]2O[C@@H](n3cnc4c(N)ncnc43)[C@H](O)[C@@H]2O)cc(OC)c1` [Compound 11-1], the IC50 was in the range of 0.101 to 1 µM.
The same measure, in the same setting: to `CCN1CCN(C2=NC(=O)C(CC(=O)Nc3ccc(OC)cc3)N2)CC1` (stereo not shown) [Compound 11-14] belongs 1 to 10 µM.
